Measurements: PubChem BioAssay (NCI)
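In this assay, cells in 96-well plates receive the compound at five concentrations for 48 hours. Endpoints are linearly interpolated between the surrounding concentrations. Here, GI50 denotes the concentration required for 50% inhibition of growth. TGI marks complete inhibition of growth.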

Columns and labels:
Assay in all cases: NCI anticancer screen, dose series, 48 h
M14 melanoma = tested on: M14 melanoma
MALME-3M melanoma = tested on: MALME-3M melanoma
NCI-H226 lung = tested on: NCI-H226 lung
NCI-H522 lung = tested on: NCI-H522 lung
OVCAR-3 ovarian = tested on: OVCAR-3 ovarian
SF-268 CNS = tested on: SF-268 CNS
SK-MEL-2 melanoma = tested on: SK-MEL-2 melanoma
SNB-19 CNS = tested on: SNB-19 CNS
TK-10 renal = tested on: TK-10 renal
UO-31 renal = tested on: UO-31 renal

Structure (SMILES) | GI50 (M14 melanoma) [µM] | TGI (M14 melanoma) [µM] | GI50 (MALME-3M melanoma) [µM] | TGI (MALME-3M melanoma) [µM] | GI50 (NCI-H226 lung) [µM] | TGI (NCI-H226 lung) [µM] | GI50 (NCI-H522 lung) [µM] | TGI (NCI-H522 lung) [µM] | GI50 (OVCAR-3 ovarian) [µM] | TGI (OVCAR-3 ovarian) [µM] | GI50 (SF-268 CNS) [µM] | TGI (SF-268 CNS) [µM] | GI50 (SK-MEL-2 melanoma) [µM] | TGI (SK-MEL-2 melanoma) [µM] | GI50 (SNB-19 CNS) [µM] | TGI (SNB-19 CNS) [µM] | GI50 (TK-10 renal) [µM] | TGI (TK-10 renal) [µM] | GI50 (UO-31 renal) [µM] | TGI (UO-31 renal) [µM]
COc1ccc(C2=C(Br)C(=O)OC2)cc1Cl | > 53 | > 100 | 37.3 | > 78.3 | 25 | 62.7 | 37.8 | > 100 | 45.7 | > 89.8 | 32.9 | 99.6 | > 91.2 | > 100 | 10.6 | > 100 | 26.8 | 77.9 | 39.6 | > 100
COc1cc(-c2nn(C)nc2-c2cc3ccccc3s2)cc(OC)c1OC | 0.0769 | > 100 | 16.9 | > 100 | > 100 | > 100 | 0.0232 | 0.0787 | 0.0354 | 0.77 | 0.638 | > 100 | 0.0597 | 21.2 | 0.254 | > 100 | 0.578 | > 100 | 0.744 | > 100
O=C(/C=C\c1cccc([N+](=O)[O-])c1)c1ccccc1 | 3.74 | 14.2 | 2.07 | 5.01 | 18.7 | 45.9 | 1.46 | 3.93 | 1.76 | 3.6 | 5.46 | 20.5 | 3.91 | 17.9 | 6.81 | 21 | 2.05 | 5.32 | 1.79 | 4.11
N#CC(NC12CC3CC(CC(C3)C1)C2)c1ccccc1 (configuration not stated) |  | > 100 |  | > 100 |  | > 100 |  | > 100 |  | > 100 |  | > 100 |  | > 100 |  | > 100 |  | > 100 |  | > 100
COC(=O)C1=C(C(=O)Nc2cccnc2)C2OC1(C(Cc1ccccc1)Oc1ccccc1)C1OC21 (configuration not stated) | 2.62 | 7.45 | 1.6 | 3.31 | 1.92 | 4.12 | 1.37 | 2.95 | 1.78 | 3.2 | 13 | 27.9 | 12.9 | 25.9 | 14.8 | 28.8 | 1.51 | 2.85 | 1.24 | 2.49
Cc1ccccc1NC(=O)N/C(N)=N/c1nc2ccccc2s1 | 0.0348 | 1.41 | 0.0693 | > 100 | 0.589 | > 100 | 0.0427 | > 100 | 0.0358 | 0.267 | 1.5 | > 100 | > 100 | > 100 | 0.104 | > 100 | 3.78 | > 100 | 1.3 | > 100
CCc1ccc(/C(C#N)=C/C=C/c2ccccc2)cc1 | 2.24 | > 100 | 6.05 | > 100 | 17.2 | > 100 | 2.04 | 14.7 | 2.46 | 13.6 | 19.3 | > 100 | 4.92 | > 100 | 6.88 | > 100 | 5.79 | > 100 | 19.2 | > 100
NCC(=O)Nc1ccc(-n2nc(C(F)(F)F)cc2-c2ccc3c(ccc4ccccc43)c2)cc1 | 1.61 | 3.24 | 1.83 | 3.51 | 2.15 | 6.35 | 1.32 | 2.71 | 1.34 | 2.65 | 1.13 | 2.75 | 1.82 | 3.48 |  |  | 1.49 | 2.87 | 1.32 | 2.61
C[CH2][Sn]1([CH2]C)[O]C2C(O)OC(CO)C(O)C2[O]1 (configuration not stated) | 37.3 | > 100 | 14 | 30.2 | 13.2 | 26.1 | 3.95 | 22.2 | > 100 | > 100 | 39.4 | > 100 | 35.5 | > 100 | 50.5 | > 100 | 18.4 | 36.5 | 68.7 | > 100
COc1ccccc1/C=C1\CCC(CN(C)C)C1=O (configuration not stated) |  | 11.1 |  | 16.2 |  | 25 |  | 3.56 |  | 18.6 |  | 29.7 |  | 24.4 |  | 26.7 |  | 15.7 |  | 18
COc1ccc(Nc2nc(NCc3ccccc3)c3ccccc3n2)cc1 | 2.3 | 5.73 | 1.92 | 3.69 | 11.5 | 37.1 | 3.66 | 16.1 | 2.35 | 5.73 | 8.85 | 25.1 | 8.72 | 21.7 | 9.72 | 24.1 | 8.45 | 22 | 5.09 | 19.8
CC(=O)c1cc2c3c(c1)c1cc4c(cc1c(=O)n3CC2)OCO4 |  | > 100 |  | > 100 |  | > 100 |  | 34 |  | > 100 |  |  |  | > 100 |  | > 100 |  | > 100 |  | 38.6
NC(=O)c1ncn(C2OC(CO)C(O)C2O)n1 (configuration not stated) | > 100 | > 100 | > 100 | > 100 | > 100 | > 100 | > 100 | > 100 | 74.9 | > 100 |  |  | > 100 | > 100 |  |  | > 100 | > 100 | > 100 | > 100
OCC1OC(n2ccc3cnccc32)CC1O (configuration not stated) |  | > 100 |  | > 100 |  | > 100 |  | > 100 |  | > 100 |  |  |  | > 100 |  | > 100 |  | > 100 |  | > 100
